Assay results taken from article PMC8560763, “Roles of metal ions in the selective inhibition of oncogenic variants of isocitrate dehydrogenase 1” (Communications Biology, 2021).
“And” between values parts separate entries of the source, which are not always exact repeats. Equal values may be shown once.

Key:
wt IDH1 [1] = biological target: T1, wt IDH1 (Homo sapiens, UniProt O75874); experiment: Absorbance assay: kinetics of reductive reaction (2OG to isocitrate) by wt IDH1; format: biochemical; conditions: wt IDH1, reductive reaction with Mg^2+
T1 construct: made in house; host or cells: Escherichia coli BL21(DE3) pLyS
Method: (§1) All experiments were performed in (at least) triplicate.
(§2) KM values were determined by varying concentrations of the substrate/cofactor under investigation while maintaining the concentrations of other components using standard conditions. […] Graphs were fitted using GraphPad Prism to obtain kinetic parameters.

wt IDH1 [2] = biological target: T1, wt IDH1; experiment: Absorbance assay (NADPH, 340 nm): kinetics of oxidative reaction (isocitrate to 2OG) by wt IDH1; format: biochemical
Method: as §1, §2

wt IDH1 [3] = biological target: T1, wt IDH1; experiment: Absorbance assay: effect of metal ions on catalysis and inhibition of wt IDH1; format: biochemical; conditions: wt IDH1, metal ions 10 mM
wt IDH1 [4] = biological target: T1, wt IDH1; experiment: Differential scanning fluorimetry (DSF) thermal shift, wt IDH1; format: binding; conditions: for Δ in Tm: Fig. 2e; for thermal stabilisation: wt IDH1, Mg^2+ alone, 0.032–20 mM
Method: Thermal shift experiments were carried out using Sypro Orange dye and a CFX96 Touch^TM Real-Time PCR Detection System (Bio-Rad)[69]. […] The standard assay buffer contains 50 mM Tris-HCl at pH 7.5. Various concentrations of substrates were mixed with IDH1 for thermal stabilisation studies. […] Bio-Rad CFX Manager was used to determine the melting temperature, Tm.

[5] = ITC, metal ion binding to DL-isocitrate; conditions: read-out: KD for metal ion binding to DL-isocitrate; metal ion (10 mM), DL-isocitrate (500 µM), 50 mM Tris-HCl, pH 7.5
Method: ITC experiments were conducted using a Malvern MicroCal PEAQ-ITC Automated machine. In general, the protein was prepared in 50 mM Tris-HCl ± 5 mM metal chloride salts at pH 7.5; substrates were dissolved in the same buffer. Four hundred microlitres of cell solution and 200 µL of titrant were transferred to an ITC plate. Titrations were conducted at 25 °C with an initial delay of 60 s and a stir speed of 750 r.p.m. The injection setup consisted of 19 injections that have one initial injection of 0.4 µL and 18 injections of 2.0 µL each with 150 s between the injections. The thermodynamic parameters were obtained using the MicroCal PEAQ-ITC analysis software.

wt IDH1 [6] = biological target: T1, wt IDH1; experiment: Isothermal titration calorimetry (ITC), binding to wt IDH1; conditions: alone, EDTA-treated wt IDH1, 50 mM Tris-HCl, pH 7.5
[7] = wt IDH1, oxidative reaction with Mg^2+ (10 mM MgCl2)

T1 sequence (O75874 2-414): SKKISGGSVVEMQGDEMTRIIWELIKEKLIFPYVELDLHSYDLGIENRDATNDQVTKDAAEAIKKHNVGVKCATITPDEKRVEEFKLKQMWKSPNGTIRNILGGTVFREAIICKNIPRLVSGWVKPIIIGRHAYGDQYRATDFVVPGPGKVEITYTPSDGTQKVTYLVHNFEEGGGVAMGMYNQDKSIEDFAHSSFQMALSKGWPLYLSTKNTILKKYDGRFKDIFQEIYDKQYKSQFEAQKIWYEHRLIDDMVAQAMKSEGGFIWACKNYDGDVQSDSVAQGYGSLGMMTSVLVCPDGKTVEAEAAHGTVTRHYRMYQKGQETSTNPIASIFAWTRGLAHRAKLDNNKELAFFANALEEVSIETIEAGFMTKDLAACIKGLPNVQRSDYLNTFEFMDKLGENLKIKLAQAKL

kcat (wt IDH1 [1]): 2.1 ± 0.1 s⁻¹ | Velocity (wt IDH1 [2]; Fig. S2d, [MgCl2] 15.625 μM): 0.01053 µM/s and 0.01316 µM/s | Velocity (wt IDH1 [2]; Fig. S2d, [MgCl2] 500 μM): 0.09476 µM/s and 0.07896 µM/s | kcat (wt IDH1 [2]; wt IDH1, oxidative reaction with Mg^2+): 50 ± 4 s⁻¹ | Km (wt IDH1 [2]; [7]): 36 ± 4 µM | Vmax (wt IDH1 [2]; [7]): 214 ± 5 nM/s | Km (wt IDH1 [2]; wt IDH1 isocitrate oxidation, in the presence of 150 mM NaCl): 94 µM | effect of metal ion on catalysis (wt IDH1 [3]): promoted | Δ in Tm (wt IDH1 [4]; wt IDH1, 0.8 mM MgCl2, replicates): -0.3 °C and -0.1 °C (2×) | Δ in Tm (wt IDH1 [4]; wt IDH1, 4 mM MgCl2, replicates): -0.1 °C | Δ in Tm (wt IDH1 [4]; wt IDH1, 20 mM MgCl2, replicates): -0.5 °C and -0.1 °C (2×) | thermal stabilisation (wt IDH1 [4]): no thermal shift | thermal stabilisation (wt IDH1 [4]; listed as Mg^2+): does not stabilise | thermal stabilisation (shift in Tm) (wt IDH1 [4]; wt IDH1, divalent metal ions (5 mM), 50 mM Tris-HCl, pH 7.5): less stabilising effect | Kd [5]: 1500 µM | Kd (wt IDH1 [6]): > 8000 µM
Compound: [Cl-].[Cl-].[Mg+2] [MgCl2]
Velocity (wt IDH1 [2]; Fig. S2c, [MgCl2] 1.95312 μM): 0.01456 µM/s and 0.01492 µM/s and 0.01895 µM/s | Velocity (wt IDH1 [2]; Fig. S2c, [MgCl2] 3.90625 μM): 0.02158 µM/s and 0.02123 µM/s and 0.02246 µM/s | Velocity (wt IDH1 [2]; Fig. S2c, [MgCl2] 7.8125 μM): 0.03106 µM/s and 0.03492 µM/s and 0.04106 µM/s | Velocity (wt IDH1 [2]; Fig. S2c, [MgCl2] 15.625 μM): 0.05387 µM/s and 0.06159 µM/s and 0.06633 µM/s | Velocity (wt IDH1 [2]; Fig. S2c, [MgCl2] 31.25 μM): 0.08809 µM/s and 0.1025 µM/s and 0.1206 µM/s | Velocity (wt IDH1 [2]; Fig. S2c, [MgCl2] 62.5 μM): 0.1304 µM/s and 0.136 µM/s and 0.1651 µM/s | Velocity (wt IDH1 [2]; Fig. S2c, [MgCl2] 250 μM): 0.1516 µM/s and 0.1788 µM/s and 0.1943 µM/s | Velocity (wt IDH1 [2]; Fig. S2c, [MgCl2] 500 μM): 0.1764 µM/s and 0.1771 µM/s and 0.2318 µM/s | Velocity (wt IDH1 [2]; Fig. S2c, [MgCl2] 1000 μM): 0.1957 µM/s and 0.2076 µM/s and 0.2279 µM/s | Velocity (wt IDH1 [2]; Fig. S2c, [MgCl2] 2000 μM): 0.2057 µM/s and 0.2199 µM/s and 0.2304 µM/s | Velocity (wt IDH1 [2]; Fig. S2d, [MgCl2] 31.25 μM): 0.02369 µM/s and 0.03159 µM/s and 0.03685 µM/s | Velocity (wt IDH1 [2]; Fig. S2d, [MgCl2] 62.5 μM): 0.03422 µM/s and 0.03685 µM/s and 0.04738 µM/s | Velocity (wt IDH1 [2]; Fig. S2d, [MgCl2] 250 μM): 0.0737 µM/s and 0.08423 µM/s and 0.07633 µM/s | Velocity (wt IDH1 [2]; Fig. S2d, [MgCl2] 1000 μM): 0.1027 µM/s and 0.08949 µM/s and 0.09476 µM/s | Velocity (wt IDH1 [2]; Fig. S2d, [MgCl2] 2000 μM): 0.08949 µM/s and 0.1079 µM/s and 0.09212 µM/s
